{"source": "patent US7285221B2", "about": "“Composition for preventing of slime and method for preventing slime” (Kurita Water Industries, Ltd., priority 2002, dated 2007)", "key": {"slime": {"system": "slime", "assay": "Attachment of slime on a synthetic rubber test board in circulating test water apparatus", "details": "120 hours after start of test; agent concentrations as in each example", "method": "(§1) From a water tank 1 holding 15 liters of water, test water was passed at a rate of 10 liters/minute through a column 3 and returned to the water tank 1 using a circulating pump 2. In the column 3, a test board made of a synthetic rubber and having a surface area of 40 cm^2 was disposed to a supporting pole to measure the amount of attachment of slime.\n(§2) In a water tank 4, test liquid for supplement prepared in advance was stored and transferred into the water tank 1 at a rate of 5 ml/minute using a pump for an agent 5. The test liquid for supplement was prepared by adding calcium chloride and sodium hydrogencarbonate to city water, which was dechlorinated by passing through a column of active carbon, in amounts such that the calcium hardness was 150 mg CaCO3/liter and the acid consumption (pH 4.8) was 150 mg CaCO3/liter. As the nutrient for microorganisms, 100 mg/liter of citric acid was added. To the obtained solution, a test agent was added and pH was adjusted at 8.5 by adding sodium hydroxide.\n(§3) When the test was started, dirt was added into the water in the water tank 1 in an amount such that the turbidity of the water was 50. As the dirt, a concentrated liquid of reverse washing discharged from filters for industrial water in Chiba area was used. The dirt was added into the water tank 1 in an amount corresponding to a turbidity of 25 at each time when 48 hours and 96 hours had passed after the start of the test.\n(§4) The number of microorganisms in the circulating water and the turbidity of the circulating water were measured 48 hours, 72 hours and 120 hours after the start of the test. The test board of synthetic rubber attached to the column 3 was taken out 120 hours after the start of the test. After slime attached to the test board was cleaved and dried to the constant weight at 105° C., the weight of the slime was measured and the amount of the attached slime was obtained.\n(§5) As part A of the test agent, a mixed liquid composed of 40% by weight of an aqueous solution of sodium hypochlorite having a concentration of effective chlorine of 12% by weight, 8% by weight of a sulfamic acid, 10% by weight of sodium hydroxide and 42% by weight of water was used. This mixed liquid is a solution conventionally used as the agent for preventing formation of slime. As part B of the agent, an anionic polymer or a phosphonic acid was used."}, "sludge": {"system": "sludge", "assay": "Accumulation of sludge at the bottom of the water tank of the circulating test water apparatus", "details": "120 hours after start of test; agent concentrations as in each example", "method": "as §1, §2, §3\nA valve 6 at a lower portion of the water tank 1 was opened and the water in the water tank 1 was removed 120 hours after the start of the test. The valve 6 was then closed again. Into the water tank 1, 200 ml of pure water was added and dirt accumulated at the lower portion of the water tank was suspended using a brush. The valve was opened and the formed suspension was taken out. After the dirt was separated using a centrifuge and dried to the constant weight at 105° C., the weight of the dirt was measured and the amount of accumulated sludge was obtained.\nas §5"}, "[1]": {"system": "microorganisms in the circulating water", "assay": "Number of microorganisms in the circulating water", "method": "as §1, §2, §3, §4, §5"}, "[2]": {"assay": "Storage stability of effective chlorine in the composition at 40° C. shielded from light", "assay_type": "physicochemical", "details": "for concentration of effective chlorine remained: pH 14; for Fraction of remaining effective chlorine: pH of composition 14, 40° C.", "method": "A composition composed of 40% by weight of an aqueous solution of sodium hypochlorite having a concentration of effective chlorine of 12% by weight, 8% by weight of sulfamic acid, 10% by weight of an anionic polymer or a phosphonic acid and the remaining amount of sodium hydroxide and water was prepared. pH of the composition was adjusted by changing the amount of sodium hydroxide. The prepared composition was stored in a vessel kept at the constant temperature of 40° C. and shielded from light. The concentration of the effective chlorine was measured after the composition was stored for a prescribed time.\nFor the measurement of the concentration of the effective chlorine, a residual chlorine meter manufactured by HACH Company and a reagent specific for this measurement were used. BELCREN (the weight-average molecular weight: 2730) manufactured by GREAT LAKES CHEMICAL Company was used as the polymaleic acid. ISOBAN (the weight-average molecular weight: 10,800) manufactured by KURARAY Co., Ltd. was used as the maleic acid-isobutylene copolymer. AQUARICK GL (the weight-average molecular weight: 10,700) manufactured by NIPPON SHOKUBAI Co., Ltd. was used as the acrylic acid-hydroxyallyloxypropanesulfonic acid copolymer. DEQUEST 2010 manufactured by MONSANTO Company was used as 1-hydroxyethylidene-1,1-diphosphonic acid. BAYHIBIT AM manufactured by BAYER Company was used as 2-phosphonobutane-1,2,4-tricarboxylic acid. BELCORE 575 manufactured by GREAT LAKES Company was used as hydroxyphosphonoacetic acid."}}}
{"smiles": "CC(O)(P(=O)(O)O)P(=O)(O)O", "note": "[Comparative Example 8, 1-hydroxyethylidene-1,1-diphosphonic acid]", "values": [{"measurement": "Attachment of slime amount", "setting": "slime", "result": 17.3, "unit": "mg/dm^2"}, {"measurement": "Accumulation of sludge amount", "setting": "sludge", "result": 42.8, "unit": "mg"}, {"measurement": "Number of microorganisms in circulating water", "setting": "[1]; after 48 hours", "result": 720000, "unit": "mL⁻¹"}, {"measurement": "Number of microorganisms in circulating water", "setting": "[1]; after 72 hours", "result": 550000, "unit": "mL⁻¹"}, {"measurement": "Number of microorganisms in circulating water", "setting": "[1]; after 120 hours", "result": 490000, "unit": "mL⁻¹"}, {"measurement": "number of microorganisms in the circulating water, in words", "setting": "[1]; comparison in words, no time point", "result": "not substantially different"}]}
{"smiles": "CC(O)(P(=O)(O)O)P(=O)(O)O", "note": "[Comparative Example 9, 1-hydroxyethylidene-1,1-diphosphonic acid]", "values": [{"measurement": "Attachment of slime amount", "setting": "slime", "result": 16.1, "unit": "mg/dm^2"}, {"measurement": "Accumulation of sludge amount", "setting": "sludge", "result": 39.6, "unit": "mg"}, {"measurement": "Number of microorganisms in circulating water", "setting": "[1]; after 48 hours", "result": "1.3e+06", "unit": "mL⁻¹"}, {"measurement": "Number of microorganisms in circulating water", "setting": "[1]; after 72 hours", "result": 490000, "unit": "mL⁻¹"}, {"measurement": "Number of microorganisms in circulating water", "setting": "[1]; after 120 hours", "result": 680000, "unit": "mL⁻¹"}]}
{"smiles": "O=C(O)CCC(CC(=O)O)(C(=O)O)P(=O)(O)O", "note": "(stereo not shown) [Comparative Example 10, 2-phosphonobutane-1,2,4-tricarboxylic acid]", "values": [{"measurement": "Attachment of slime amount", "setting": "slime", "result": 19.2, "unit": "mg/dm^2"}, {"measurement": "Accumulation of sludge amount", "setting": "sludge", "result": 55.5, "unit": "mg"}, {"measurement": "Number of microorganisms in circulating water", "setting": "[1]; after 48 hours", "result": 670000, "unit": "mL⁻¹"}, {"measurement": "Number of microorganisms in circulating water", "setting": "[1]; after 72 hours", "result": 840000, "unit": "mL⁻¹"}, {"measurement": "Number of microorganisms in circulating water", "setting": "[1]; after 120 hours", "result": 420000, "unit": "mL⁻¹"}]}
{"smiles": "O=C(O)CCC(CC(=O)O)(C(=O)O)P(=O)(O)O", "note": "(stereo not shown) [Comparative Example 11, 2-phosphonobutane-1,2,4-tricarboxylic acid]", "values": [{"measurement": "Attachment of slime amount", "setting": "slime", "result": 16.5, "unit": "mg/dm^2"}, {"measurement": "Accumulation of sludge amount", "setting": "sludge", "result": 48.8, "unit": "mg"}, {"measurement": "Number of microorganisms in circulating water", "setting": "[1]; after 48 hours", "result": "3.8e+06", "unit": "mL⁻¹"}, {"measurement": "Number of microorganisms in circulating water", "setting": "[1]; after 72 hours", "result": 890000, "unit": "mL⁻¹"}, {"measurement": "Number of microorganisms in circulating water", "setting": "[1]; after 120 hours", "result": 760000, "unit": "mL⁻¹"}]}
{"smiles": "O=C(O)C(O)P(=O)(O)O", "note": "(stereo not shown) [Comparative Example 13, hydroxy-phosphonoacetic acid]", "values": [{"measurement": "Attachment of slime amount", "setting": "slime", "result": 16.5, "unit": "mg/dm^2"}, {"measurement": "Accumulation of sludge amount", "setting": "sludge", "result": 51.1, "unit": "mg"}, {"measurement": "Number of microorganisms in circulating water", "setting": "[1]; after 48 hours", "result": 660000, "unit": "mL⁻¹"}, {"measurement": "Number of microorganisms in circulating water", "setting": "[1]; after 72 hours", "result": 350000, "unit": "mL⁻¹"}, {"measurement": "Number of microorganisms in circulating water", "setting": "[1]; after 120 hours", "result": 490000, "unit": "mL⁻¹"}]}
{"smiles": "OCl", "note": "[sodium hypochlorite]", "values": [{"measurement": "concentration of effective chlorine remained", "setting": "[2]; after 3 month", "result": "about 20%"}, {"measurement": "concentration of effective chlorine remained", "setting": "[2]; after one month", "result": "about 60%"}, {"measurement": "Fraction of remaining effective chlorine", "setting": "[2]; after 7 days", "result": 91, "unit": "%"}, {"measurement": "Fraction of remaining effective chlorine", "setting": "[2]; after 30 days", "result": 59, "unit": "%"}, {"measurement": "Fraction of remaining effective chlorine", "setting": "[2]; after 90 days", "result": 18, "unit": "%"}]}
